# Measurements published in publication PMC8800111 (The Journal of Biological Chemistry, 2021).
# Key:
# Type in all cases: cell-based
# [1] = target: proteins of U3A human fibrosarcoma cells (4462 proteins detected) (Homo sapiens, UniProt Q9NXR1); conditions: protein NDE1, U3A cells
# [2] = target: proteins of U3A human fibrosarcoma cells (4462 proteins detected) (Homo sapiens, UniProt P08758); conditions: protein ANXA5, U3A cells
# [3] = target: proteins of U3A human fibrosarcoma cells (4462 proteins detected) (Homo sapiens, UniProt Q9H2U1); conditions: protein DHX36, U3A cells
# [4] = target: proteins of U3A human fibrosarcoma cells (4462 proteins detected) (Homo sapiens, UniProt Q9UHA3); conditions: protein RSL24D1; U3A cells
# [5] = target: proteins of U3A human fibrosarcoma cells (4462 proteins detected) (Homo sapiens, UniProt Q9H9Y6); conditions: protein POLR1B; soluble abundance after heat, U3A cells
# [6] = target: proteins of U3A human fibrosarcoma cells (4462 proteins detected) (Homo sapiens, UniProt Q9UJF2); conditions: protein RASAL2, U3A cells
# [7] = target: proteins of U3A human fibrosarcoma cells (4462 proteins detected) (Homo sapiens, UniProt Q96AT1); conditions: protein KIAA1143; U3A, 10 μM, 2 h
# proteins of U3A human fibrosarcoma cells (4462 proteins detected) (Homo sapiens, UniProt Q96AT1), sequence (Q96AT1 whole entry): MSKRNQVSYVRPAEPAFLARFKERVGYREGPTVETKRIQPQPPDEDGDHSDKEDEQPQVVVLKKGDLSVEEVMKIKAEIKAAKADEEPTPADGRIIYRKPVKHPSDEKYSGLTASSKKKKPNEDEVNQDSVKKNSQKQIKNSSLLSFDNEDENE
# [8] = target: proteins of U3A human fibrosarcoma cells (4462 proteins detected) (Homo sapiens, UniProt Q96DH6); conditions: protein MSI2; U3A, 10 μM, 2 h
# proteins of U3A human fibrosarcoma cells (4462 proteins detected) (Homo sapiens, UniProt Q96DH6), sequence (Q96DH6 whole entry): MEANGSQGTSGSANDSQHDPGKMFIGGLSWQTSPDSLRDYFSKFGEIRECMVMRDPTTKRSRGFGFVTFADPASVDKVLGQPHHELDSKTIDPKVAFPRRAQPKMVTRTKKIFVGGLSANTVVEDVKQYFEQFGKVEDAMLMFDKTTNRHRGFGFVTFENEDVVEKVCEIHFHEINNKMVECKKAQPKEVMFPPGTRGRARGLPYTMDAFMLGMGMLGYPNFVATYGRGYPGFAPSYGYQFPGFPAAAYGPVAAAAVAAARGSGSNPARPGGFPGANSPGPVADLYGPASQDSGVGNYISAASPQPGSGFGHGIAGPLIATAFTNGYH
# [9] = target: proteins of U3A human fibrosarcoma cells (4462 proteins detected) (Homo sapiens, UniProt Q9Y3T9); conditions: protein NOC2L; soluble abundance after heat, U3A cells
# [10] = target: proteins of U3A human fibrosarcoma cells (4462 proteins detected) (Homo sapiens, UniProt P36776); conditions: protein LONP1; U3A cells
# proteins of U3A human fibrosarcoma cells (4462 proteins detected) (Homo sapiens, UniProt P36776), sequence (P36776 68-959): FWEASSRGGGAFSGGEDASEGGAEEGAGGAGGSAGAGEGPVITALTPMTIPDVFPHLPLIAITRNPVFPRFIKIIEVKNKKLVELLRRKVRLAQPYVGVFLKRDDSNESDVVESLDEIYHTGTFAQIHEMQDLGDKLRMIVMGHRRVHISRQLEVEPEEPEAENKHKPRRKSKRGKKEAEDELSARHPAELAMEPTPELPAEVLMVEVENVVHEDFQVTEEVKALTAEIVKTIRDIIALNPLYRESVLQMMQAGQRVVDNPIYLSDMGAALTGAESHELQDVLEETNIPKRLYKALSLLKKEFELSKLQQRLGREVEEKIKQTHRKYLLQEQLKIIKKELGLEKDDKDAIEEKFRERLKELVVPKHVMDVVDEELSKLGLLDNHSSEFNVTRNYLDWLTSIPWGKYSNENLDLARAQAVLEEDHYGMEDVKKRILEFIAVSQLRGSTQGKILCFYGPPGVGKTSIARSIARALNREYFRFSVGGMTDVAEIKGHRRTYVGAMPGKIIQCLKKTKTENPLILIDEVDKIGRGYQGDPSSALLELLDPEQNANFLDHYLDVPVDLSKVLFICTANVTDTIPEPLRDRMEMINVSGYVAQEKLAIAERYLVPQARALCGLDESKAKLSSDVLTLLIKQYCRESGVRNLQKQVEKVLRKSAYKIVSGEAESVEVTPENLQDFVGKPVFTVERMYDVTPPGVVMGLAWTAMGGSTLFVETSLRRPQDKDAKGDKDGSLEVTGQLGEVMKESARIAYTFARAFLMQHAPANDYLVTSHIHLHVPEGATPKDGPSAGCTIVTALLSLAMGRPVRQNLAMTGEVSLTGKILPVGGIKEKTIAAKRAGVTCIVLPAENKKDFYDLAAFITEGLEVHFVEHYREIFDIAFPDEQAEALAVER
# [11] = target: proteins of U3A human fibrosarcoma cells (4462 proteins detected) (Homo sapiens, UniProt Q9NWH9); conditions: protein SLTM; soluble abundance after heat, U3A cells
# [12] = target: proteins of U3A human fibrosarcoma cells (4462 proteins detected) (Homo sapiens, UniProt P04083); conditions: protein ANXA1, U3A cells
# [13] = target: proteins of U3A human fibrosarcoma cells (4462 proteins detected) (Homo sapiens, UniProt Q8N9T8); conditions: protein KRI1; soluble abundance after heat, U3A cells
# [14] = target: proteins of U3A human fibrosarcoma cells (4462 proteins detected) (Homo sapiens, UniProt Q9H5Q4); conditions: protein TFB2M; U3A cells
# proteins of U3A human fibrosarcoma cells (4462 proteins detected) (Homo sapiens, UniProt Q9H5Q4), sequence (Q9H5Q4 20-396): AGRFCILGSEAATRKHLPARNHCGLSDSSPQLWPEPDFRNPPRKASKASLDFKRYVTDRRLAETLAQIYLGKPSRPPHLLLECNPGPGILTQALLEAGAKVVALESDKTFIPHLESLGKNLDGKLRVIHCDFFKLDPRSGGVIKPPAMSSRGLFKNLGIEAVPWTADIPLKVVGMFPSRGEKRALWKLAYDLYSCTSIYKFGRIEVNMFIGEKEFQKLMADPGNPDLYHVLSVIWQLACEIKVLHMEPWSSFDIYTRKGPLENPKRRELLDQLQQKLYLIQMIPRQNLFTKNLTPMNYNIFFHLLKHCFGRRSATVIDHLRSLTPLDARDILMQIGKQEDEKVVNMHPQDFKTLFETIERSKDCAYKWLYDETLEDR
# [15] = target: proteins of U3A human fibrosarcoma cells (4462 proteins detected) (Homo sapiens, UniProt O00764); conditions: protein PDXK, U3A cells
# proteins of U3A human fibrosarcoma cells (4462 proteins detected) (Homo sapiens, UniProt O00764), sequence (O00764 whole entry): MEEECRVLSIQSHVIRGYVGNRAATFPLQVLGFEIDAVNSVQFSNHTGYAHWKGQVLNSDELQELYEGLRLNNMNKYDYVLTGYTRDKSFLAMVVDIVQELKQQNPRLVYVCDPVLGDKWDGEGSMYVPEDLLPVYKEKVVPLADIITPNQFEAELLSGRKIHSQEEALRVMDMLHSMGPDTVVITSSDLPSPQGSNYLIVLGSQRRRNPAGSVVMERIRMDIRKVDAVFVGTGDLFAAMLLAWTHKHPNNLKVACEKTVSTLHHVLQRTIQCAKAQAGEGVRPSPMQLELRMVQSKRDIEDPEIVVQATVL
# [16] = target: proteins of U3A human fibrosarcoma cells (4462 proteins detected) (Homo sapiens, UniProt Q15382); conditions: protein RHEB; U3A, 10 μM, 2 h
# [17] = target: proteins of U3A human fibrosarcoma cells (4462 proteins detected) (Homo sapiens, UniProt Q6YN16); conditions: protein HSDL2; U3A cells
# [18] = target: proteins of U3A human fibrosarcoma cells (4462 proteins detected) (Homo sapiens, UniProt Q8TAQ2); conditions: protein SMARCC2; soluble abundance after heat, U3A cells
# [19] = target: proteins of U3A human fibrosarcoma cells (4462 proteins detected) (Homo sapiens, UniProt Q9Y3C8); conditions: protein UFC1; U3A cells
# [20] = target: proteins of U3A human fibrosarcoma cells (4462 proteins detected) (Homo sapiens, UniProt Q9Y478); conditions: protein PRKAB1; U3A cells
# [21] = target: proteins of U3A human fibrosarcoma cells (4462 proteins detected) (Homo sapiens, UniProt Q9Y2P8); conditions: protein RCL1; U3A cells
# proteins of U3A human fibrosarcoma cells (4462 proteins detected) (Homo sapiens, UniProt Q9Y2P8), sequence (Q9Y2P8 whole entry): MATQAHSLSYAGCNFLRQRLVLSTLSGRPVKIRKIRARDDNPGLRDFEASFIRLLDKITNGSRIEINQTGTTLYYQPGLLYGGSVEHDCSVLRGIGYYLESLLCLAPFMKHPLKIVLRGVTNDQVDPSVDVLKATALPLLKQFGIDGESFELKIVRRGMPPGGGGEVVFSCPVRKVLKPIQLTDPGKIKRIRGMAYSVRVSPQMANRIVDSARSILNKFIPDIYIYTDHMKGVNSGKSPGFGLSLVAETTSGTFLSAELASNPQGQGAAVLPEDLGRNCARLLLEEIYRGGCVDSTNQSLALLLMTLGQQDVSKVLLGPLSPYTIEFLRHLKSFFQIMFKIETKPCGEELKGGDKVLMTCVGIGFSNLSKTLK
# [22] = target: proteins of U3A human fibrosarcoma cells (4462 proteins detected) (Homo sapiens, UniProt P07948); conditions: protein LYN; U3A cells
# proteins of U3A human fibrosarcoma cells (4462 proteins detected) (Homo sapiens, UniProt P07948), sequence (P07948 whole entry): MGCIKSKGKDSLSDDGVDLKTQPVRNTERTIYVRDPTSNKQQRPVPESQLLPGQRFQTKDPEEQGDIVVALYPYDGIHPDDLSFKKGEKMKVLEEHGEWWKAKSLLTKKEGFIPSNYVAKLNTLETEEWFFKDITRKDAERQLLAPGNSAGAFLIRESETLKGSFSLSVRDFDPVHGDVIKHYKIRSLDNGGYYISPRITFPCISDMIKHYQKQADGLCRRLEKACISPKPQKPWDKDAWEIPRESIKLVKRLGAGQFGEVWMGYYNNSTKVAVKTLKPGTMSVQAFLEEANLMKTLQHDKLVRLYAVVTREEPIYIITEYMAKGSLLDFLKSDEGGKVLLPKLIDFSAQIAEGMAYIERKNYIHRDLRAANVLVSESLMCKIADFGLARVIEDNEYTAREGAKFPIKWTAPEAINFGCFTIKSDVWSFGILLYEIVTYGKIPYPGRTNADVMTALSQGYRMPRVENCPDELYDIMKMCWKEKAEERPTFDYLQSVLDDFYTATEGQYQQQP
# [23] = target: proteins of U3A human fibrosarcoma cells (4462 proteins detected) (Homo sapiens, UniProt Q9NYV4); conditions: protein CDK12; U3A cells
# [24] = target: proteins of U3A human fibrosarcoma cells (4462 proteins detected) (Homo sapiens, UniProt Q96K76); conditions: protein USP47; U3A cells
# [25] = target: proteins of U3A human fibrosarcoma cells (4462 proteins detected) (Homo sapiens, UniProt Q9NVH2); conditions: protein INTS7; soluble abundance after heat, U3A cells
# [26] = target: proteins of U3A human fibrosarcoma cells (4462 proteins detected) (Homo sapiens, UniProt P30519); conditions: protein HMOX2; U3A, 10 μM, 2 h
# [27] = target: proteins of U3A human fibrosarcoma cells (4462 proteins detected) (Homo sapiens, UniProt P15927); conditions: protein RPA2; U3A cells
# [28] = target: proteins of U3A human fibrosarcoma cells (4462 proteins detected) (Homo sapiens, UniProt Q9UEY8); conditions: protein ADD3; U3A cells
# proteins of U3A human fibrosarcoma cells (4462 proteins detected) (Homo sapiens, UniProt Q9UEY8), sequence (Q9UEY8 whole entry): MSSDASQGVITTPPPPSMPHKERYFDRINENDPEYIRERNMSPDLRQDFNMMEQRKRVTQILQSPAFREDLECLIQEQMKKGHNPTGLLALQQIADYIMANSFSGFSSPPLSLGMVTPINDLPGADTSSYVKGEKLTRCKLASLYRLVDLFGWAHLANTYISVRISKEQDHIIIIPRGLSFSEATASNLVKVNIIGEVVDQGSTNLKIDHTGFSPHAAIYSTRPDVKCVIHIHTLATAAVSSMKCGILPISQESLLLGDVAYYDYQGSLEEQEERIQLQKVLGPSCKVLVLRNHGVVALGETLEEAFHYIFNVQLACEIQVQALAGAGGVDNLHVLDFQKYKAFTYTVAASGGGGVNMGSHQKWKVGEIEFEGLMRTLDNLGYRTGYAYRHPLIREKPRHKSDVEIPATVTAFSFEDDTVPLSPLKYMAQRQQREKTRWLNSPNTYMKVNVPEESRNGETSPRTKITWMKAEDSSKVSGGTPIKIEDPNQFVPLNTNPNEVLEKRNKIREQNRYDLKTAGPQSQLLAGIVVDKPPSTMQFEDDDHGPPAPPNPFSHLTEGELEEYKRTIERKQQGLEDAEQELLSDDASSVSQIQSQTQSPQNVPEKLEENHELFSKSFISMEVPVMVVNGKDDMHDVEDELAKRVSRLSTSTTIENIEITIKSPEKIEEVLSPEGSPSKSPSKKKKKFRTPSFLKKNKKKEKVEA
# [29] = target: proteins of U3A human fibrosarcoma cells (4462 proteins detected) (Homo sapiens, UniProt P57772); conditions: protein EEFSEC, U3A cells
# [30] = target: proteins of U3A human fibrosarcoma cells (4462 proteins detected) (Homo sapiens, UniProt P49840); conditions: protein GSK3A; U3A cells
# proteins of U3A human fibrosarcoma cells (4462 proteins detected) (Homo sapiens, UniProt P49840), sequence (P49840 whole entry): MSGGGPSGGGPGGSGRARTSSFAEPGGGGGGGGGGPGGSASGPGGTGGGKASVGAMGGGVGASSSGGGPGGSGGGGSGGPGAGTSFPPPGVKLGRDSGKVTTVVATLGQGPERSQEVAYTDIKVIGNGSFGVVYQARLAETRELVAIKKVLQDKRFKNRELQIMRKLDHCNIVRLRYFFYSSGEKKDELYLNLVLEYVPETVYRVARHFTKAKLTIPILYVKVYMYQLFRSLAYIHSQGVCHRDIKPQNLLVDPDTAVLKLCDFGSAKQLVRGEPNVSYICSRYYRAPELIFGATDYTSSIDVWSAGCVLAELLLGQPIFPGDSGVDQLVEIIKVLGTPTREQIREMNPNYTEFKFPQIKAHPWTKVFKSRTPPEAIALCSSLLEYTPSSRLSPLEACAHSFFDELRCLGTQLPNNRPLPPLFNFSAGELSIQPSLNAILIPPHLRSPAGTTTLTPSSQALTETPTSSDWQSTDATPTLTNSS
# proteins of U3A human fibrosarcoma cells (4462 proteins detected) (Homo sapiens, UniProt Q9NXR1), sequence (Q9NXR1 whole entry): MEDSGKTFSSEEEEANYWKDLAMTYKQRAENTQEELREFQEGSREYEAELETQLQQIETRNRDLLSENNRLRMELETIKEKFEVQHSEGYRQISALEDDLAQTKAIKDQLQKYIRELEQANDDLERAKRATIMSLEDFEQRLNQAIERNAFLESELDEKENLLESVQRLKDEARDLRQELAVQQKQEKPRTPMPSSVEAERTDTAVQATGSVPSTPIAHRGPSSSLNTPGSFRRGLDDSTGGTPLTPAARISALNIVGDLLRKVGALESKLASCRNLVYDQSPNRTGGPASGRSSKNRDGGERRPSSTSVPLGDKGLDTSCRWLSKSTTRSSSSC
# proteins of U3A human fibrosarcoma cells (4462 proteins detected) (Homo sapiens, UniProt P08758), sequence (P08758 whole entry): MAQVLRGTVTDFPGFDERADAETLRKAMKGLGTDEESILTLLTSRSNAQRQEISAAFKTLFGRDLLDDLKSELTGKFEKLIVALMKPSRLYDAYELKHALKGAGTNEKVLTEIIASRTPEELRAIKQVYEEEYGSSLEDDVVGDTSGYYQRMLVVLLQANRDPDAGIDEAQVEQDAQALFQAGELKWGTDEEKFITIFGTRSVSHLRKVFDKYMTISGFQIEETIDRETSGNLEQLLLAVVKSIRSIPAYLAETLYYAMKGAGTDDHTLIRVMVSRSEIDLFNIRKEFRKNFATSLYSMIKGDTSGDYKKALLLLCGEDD
smiles,measurement,setting,value
CCc1nc(N)nc(N)c1-c1ccc(Cl)cc1 [pyrimethamine],Log2 (PYR/DMSO),[1],-0.04
same,Log2 (PYR/DMSO),[2],-0.04
same,Log2 (PYR/DMSO),[3],-0.03
same,Log2 (PYR/DMSO),[4],0.17
same,Log2 (PYR/DMSO),[5],0.13
same,Log2 (PYR/DMSO),[6],-0.05
same,"Log2 (PYR/DMSO), KIAA1143",[7],-0.16
same,"Log2 (PYR/DMSO), MSI2",[8],-0.17
same,Log2 (PYR/DMSO),[9],0.14
same,Log2 (PYR/DMSO),[10],0.22
same,Log2 (PYR/DMSO),[11],0.15
same,Log2 (PYR/DMSO),[12],-0.05
same,Log2 (PYR/DMSO),[13],0.14
same,Log2 (PYR/DMSO),[14],0.18
same,Log2 (PYR/DMSO),[15],-0.05
same,"Log2 (PYR/DMSO), RHEB",[16],-0.45
same,Log2 (PYR/DMSO),[17],0.22
same,Log2 (PYR/DMSO),[18],0.13
same,Log2 (PYR/DMSO),[19],0.16
same,Log2 (PYR/DMSO),[20],0.23
same,Log2 (PYR/DMSO),[21],0.21
same,Log2 (PYR/DMSO),[22],0.16
same,Log2 (PYR/DMSO),[23],0.20
same,Log2 (PYR/DMSO),[24],0.19
same,Log2 (PYR/DMSO),[25],0.15
same,"Log2 (PYR/DMSO), HMOX2",[26],0.25
same,Log2 (PYR/DMSO),[27],0.17
same,Log2 (PYR/DMSO),[28],0.16
same,Log2 (PYR/DMSO),[29],-0.04
same,Log2 (PYR/DMSO),[30],0.16
